According to PMC5218480 (PLoS ONE, 2017):

Test system: MV-4-11 cells
Test: Gene expression microarray analysis (Affymetrix PrimeView) and GSEA
Assay type: cell-based, human
Set-up: RFU PODN (11730768_x_at) / Fold change /veh PODN (11730768_x_at) / RFU LINC00158 (11744669_a_at) / Fold change /veh LINC00158 (11744669_a_at) / RFU DUSP10 (11751237_a_at) / Fold change /veh DUSP10 (11751237_a_at) / RFU ID3 (11757404_x_at) / Fold change /veh ID3 (11757404_x_at) / RFU PLEKHG5 (11737974_s_at) / Fold change /veh PLEKHG5 (11737974_s_at) / RFU LRRC4B (11730491_at) / Fold change /veh LRRC4B (11730491_at) / RFU GIMAP4 (11747438_a_at) / Fold change /veh GIMAP4 (11747438_a_at) / RFU KRT8 (11758183_x_at) / Fold change /veh KRT8 (11758183_x_at) / RFU CNN1 (11734310_a_at) / Fold change /veh CNN1 (11734310_a_at) / RFU VPS37D (11726825_at) / Fold change /veh VPS37D (11726825_at) / RFU C10orf10 (11716522_x_at) / Fold change /veh C10orf10 (11716522_x_at) / RFU KIR2DL2 /// KIR2DL4 /// KIR2DL5A /// KIR2DL5B /// KIR2DS1 /// KIR2DS2 /// KIR2DS3 /// KIR2DS4 /// KIR3DL3 /// KIR3DL3 /// KIR3DS1 (11738374_at) / Fold change /veh KIR2DL2 /// KIR2DL4 /// KIR2DL5A /// KIR2DL5B /// KIR2DS1 /// KIR2DS2 /// KIR2DS3 /// KIR2DS4 /// KIR3DL3 /// KIR3DL3 /// KIR3DS1 (11738374_at) / RFU C1QL1 (11718748_at) / Fold change /veh C1QL1 (11718748_at) / RFU TMPRSS4 (11747572_a_at) / Fold change /veh TMPRSS4 (11747572_a_at) / RFU HAMP (11756126_x_at) / Fold change /veh HAMP (11756126_x_at) / RFU RNFT2 (11725882_a_at) / Fold change /veh RNFT2 (11725882_a_at) / RFU NR4A2 (11747474_a_at) / Fold change /veh NR4A2 (11747474_a_at) / RFU ABCC12 (11746883_a_at) / Fold change /veh ABCC12 (11746883_a_at) / RFU TMEM136 (11760407_x_at) / Fold change /veh TMEM136 (11760407_x_at) / RFU CLDN22 /// WWC2 (11732394_at) / Fold change /veh CLDN22 /// WWC2 (11732394_at) / RFU HLA-DPB1 (11760878_x_at) / Fold change /veh HLA-DPB1 (11760878_x_at) / RFU SPINT1 (11716480_a_at) / Fold change /veh SPINT1 (11716480_a_at) / RFU GAP43 (11754022_s_at) / Fold change /veh GAP43 (11754022_s_at) / RFU A4GNT (11735810_at) / Fold change /veh A4GNT (11735810_at) / RFU PRB3 (11715151_x_at) / Fold change /veh PRB3 (11715151_x_at) / RFU TUBB4B (11761932_at) / Fold change /veh TUBB4B (11761932_at) / RFU CAPN14 (11732068_a_at) / Fold change /veh CAPN14 (11732068_a_at) / RFU TMCC2 (11721928_a_at) / Fold change /veh TMCC2 (11721928_a_at) / RFU IRGQ (11745062_a_at) / Fold change /veh IRGQ (11745062_a_at) / RFU FAM174B (11720279_a_at) / Fold change /veh FAM174B (11720279_a_at) / RFU TMPRSS4 (11748680_a_at) / Fold change /veh TMPRSS4 (11748680_a_at) / RFU FAM212B (11763350_a_at) / Fold change /veh FAM212B (11763350_a_at) / RFU PLEKHG5 (11743358_a_at) / Fold change /veh PLEKHG5 (11743358_a_at) / RFU ZSCAN30 (11745921_a_at) / Fold change /veh ZSCAN30 (11745921_a_at) / RFU CMKLR1 (11741424_a_at) / Fold change /veh CMKLR1 (11741424_a_at) / RFU LOC101060620 /// MAPK8IP1 (11723275_at) / Fold change /veh LOC101060620 /// MAPK8IP1 (11723275_at) / RFU SPTSSB (11747773_x_at) / Fold change /veh SPTSSB (11747773_x_at) / RFU PRSS12 (11739890_at) / Fold change /veh PRSS12 (11739890_at) / RFU BIN1 (11741810_x_at) / Fold change /veh BIN1 (11741810_x_at) / RFU WNT11 (11732464_a_at) / Fold change /veh WNT11 (11732464_a_at) / RFU C10orf10 (11716521_a_at) / Fold change /veh C10orf10 (11716521_a_at) / RFU C5orf56 (11738089_at) / Fold change /veh C5orf56 (11738089_at) / RFU CYB561 (11721691_x_at) / Fold change /veh CYB561 (11721691_x_at) / RFU ANKRD19P (11752326_a_at) / Fold change /veh ANKRD19P (11752326_a_at) / RFU OR2T12 /// OR2T33 /// OR2T8 (11738714_s_at) / Fold change /veh OR2T12 /// OR2T33 /// OR2T8 (11738714_s_at) / RFU VCAN (11748164_a_at) / Fold change /veh VCAN (11748164_a_at) / RFU JSRP1 (11732532_at) / Fold change /veh JSRP1 (11732532_at) / RFU KRTAP10-11 (11738290_x_at) / Fold change /veh KRTAP10-11 (11738290_x_at) / RFU MYO3A (11730013_a_at) / Fold change /veh MYO3A (11730013_a_at) / RFU EBF3 (11725865_a_at) / Fold change /veh EBF3 (11725865_a_at) / RFU CAMK2N1 (11719241_x_at) / Fold change /veh CAMK2N1 (11719241_x_at) / RFU C5orf56 (11738088_a_at) / Fold change /veh C5orf56 (11738088_a_at) / RFU OLFML3 (11715873_a_at) / Fold change /veh OLFML3 (11715873_a_at) / RFU LOC100653217 /// NTM (11731650_a_at) / Fold change /veh LOC100653217 /// NTM (11731650_a_at) / RFU MAPK11 (11762145_a_at) / Fold change /veh MAPK11 (11762145_a_at) / RFU FIZ1 (11724087_x_at) / Fold change /veh FIZ1 (11724087_x_at) / RFU OASL (11726364_x_at) / Fold change /veh OASL (11726364_x_at) / RFU SOX15 (11748057_x_at) / Fold change /veh SOX15 (11748057_x_at) / RFU CD79A (11719716_a_at) / Fold change /veh CD79A (11719716_a_at) / RFU HIST1H1D (11736915_at) / Fold change /veh HIST1H1D (11736915_at) / RFU CASKIN2 (11723855_a_at) / Fold change /veh CASKIN2 (11723855_a_at) / RFU LOC730098 (11760151_x_at) / Fold change /veh LOC730098 (11760151_x_at) / RFU OR4N2 (11742367_at) / Fold change /veh OR4N2 (11742367_at) / RFU PRRT2 (11749266_a_at) / Fold change /veh PRRT2 (11749266_a_at) / RFU SNX32 (11753110_a_at) / Fold change /veh SNX32 (11753110_a_at) / RFU CDHR5 (11726645_a_at) / Fold change /veh CDHR5 (11726645_a_at) / RFU RCAN1 (11760418_a_at) / Fold change /veh RCAN1 (11760418_a_at) / RFU FAM167A (11723789_a_at) / Fold change /veh FAM167A (11723789_a_at) / RFU FAM26E (11764081_at) / Fold change /veh FAM26E (11764081_at) / RFU ISYNA1 (11749810_s_at) / Fold change /veh ISYNA1 (11749810_s_at) / RFU ACY1 (11761880_at) / Fold change /veh ACY1 (11761880_at) / RFU 11764098_at / Fold change /veh 11764098_at / RFU SAMD14 (11745864_x_at) / Fold change /veh SAMD14 (11745864_x_at) / RFU NPB (11741838_a_at) / Fold change /veh NPB (11741838_a_at) / RFU TMPRSS6 (11731388_a_at) / Fold change /veh TMPRSS6 (11731388_a_at) / RFU KRTAP10-2 (11738614_at) / Fold change /veh KRTAP10-2 (11738614_at) / RFU ARHGAP8 /// PRR5-ARHGAP8 (11727945_x_at) / Fold change /veh ARHGAP8 /// PRR5-ARHGAP8 (11727945_x_at) / RFU KRTAP5-7 /// NADSYN1 (11734609_at) / Fold change /veh KRTAP5-7 /// NADSYN1 (11734609_at) / RFU RASL12 (11751679_a_at) / Fold change /veh RASL12 (11751679_a_at) / RFU CDKN2B (11736163_a_at) / Fold change /veh CDKN2B (11736163_a_at) / RFU PRF1 (11729649_at) / Fold change /veh PRF1 (11729649_at) / RFU, ZNF638 /// ZNF638-IT1 / Fold change vs veh, ZNF638 /// ZNF638-IT1 / RFU, PANK3 / Fold change vs veh, PANK3 / RFU, SH3YL1 / Fold change vs veh, SH3YL1 / RFU, ZEB2 / Fold change vs veh, ZEB2 / RFU, NRIP1 / Fold change vs veh, NRIP1 / RFU, PTTG1IP / Fold change vs veh, PTTG1IP / RFU, CAPN2 / Fold change vs veh, CAPN2 / RFU, MED14 / Fold change vs veh, MED14 / RFU, SNORA58 / Fold change vs veh, SNORA58 / RFU, C1orf63 / Fold change vs veh, C1orf63 / RFU, LRRFIP1 / Fold change vs veh, LRRFIP1 / RFU, NDUFAF7 / Fold change vs veh, NDUFAF7 / RFU, SLC12A2 / Fold change vs veh, SLC12A2 / RFU, IBTK / Fold change vs veh, IBTK / RFU, ESF1 / Fold change vs veh, ESF1 / Fold change vs veh, TMEM50B / RFU, TAOK1 / Fold change vs veh, TAOK1 / RFU, ACBD3 / Fold change vs veh, ACBD3 / RFU, TMA16 / Fold change vs veh, TMA16 / RFU, RWDD3 / Fold change vs veh, RWDD3 / RFU, BCAT1 / Fold change vs veh, BCAT1 / RFU, EDEM3 / Fold change vs veh, EDEM3 / RFU, TMEM33 / Fold change vs veh, TMEM33 / RFU, WDR75 / Fold change vs veh, WDR75 / RFU, AHCTF1 / Fold change vs veh, AHCTF1 / RFU, TFRC / Fold change vs veh, TFRC / RFU, ZDHHC17 / Fold change vs veh, ZDHHC17 / RFU, NOM1 / Fold change vs veh, NOM1 / RFU, ARL8B / Fold change vs veh, ARL8B / RFU, ZBTB11 / Fold change vs veh, ZBTB11 / RFU, TAMM41 / Fold change vs veh, TAMM41 / RFU, KIAA1704 /// LOC100996395 / Fold change vs veh, KIAA1704 /// LOC100996395 / RFU, ING1 / Fold change vs veh, ING1 / RFU, TRMT61B / Fold change vs veh, TRMT61B / RFU, FUBP3 / Fold change vs veh, FUBP3 / RFU, TP53 / Fold change vs veh, TP53 / RFU, TNKS2 / Fold change vs veh, TNKS2 / RFU, ZFP14 / Fold change vs veh, ZFP14 / RFU, ACTR2 / Fold change vs veh, ACTR2 / RFU, PPP3R1 / Fold change vs veh, PPP3R1 / RFU, PIK3R1 / Fold change vs veh, PIK3R1 / RFU, HNRNPA1 / Fold change vs veh, HNRNPA1 / RFU, RNF170 / Fold change vs veh, RNF170 / RFU, ZNF28 / Fold change vs veh, ZNF28 / RFU, RNGTT / Fold change vs veh, RNGTT / RFU, OGT / Fold change vs veh, OGT / RFU, BRD1 / Fold change vs veh, BRD1 / RFU, MARS / Fold change vs veh, MARS / RFU, ZNF655 / Fold change vs veh, ZNF655 / RFU, FAHD1 / Fold change vs veh, FAHD1 / RFU, BDP1 / Fold change vs veh, BDP1 / RFU, LRRCC1 / Fold change vs veh, LRRCC1 / RFU, ARID1A / Fold change vs veh, ARID1A / RFU, ZNF146 / Fold change vs veh, ZNF146 / RFU, ZNF330 / Fold change vs veh, ZNF330 / RFU, GPN3 / Fold change vs veh, GPN3 / RFU, C9orf123 / Fold change vs veh, C9orf123 / RFU, N4BP2L2 / Fold change vs veh, N4BP2L2 / RFU, ARFIP1 / Fold change vs veh, ARFIP1 / RFU, FAM179B / Fold change vs veh, FAM179B / RFU, BCL10 / Fold change vs veh, BCL10 / RFU, UHRF1BP1L / Fold change vs veh, UHRF1BP1L / RFU, BET1 / Fold change vs veh, BET1 / RFU, CNOT2 / Fold change vs veh, CNOT2 / RFU, ZNF268 / Fold change vs veh, ZNF268 / Fold change vs veh, ZNF507 / RFU, DGCR2 / Fold change vs veh, DGCR2 / RFU, WDSUB1 / Fold change vs veh, WDSUB1 / Fold change vs veh, HSP90B1 /// MIR3652 / RFU, ADSS / Fold change vs veh, ADSS / RFU, GK / Fold change vs veh, GK / RFU, ZNF148 / Fold change vs veh, ZNF148 / RFU, TAF9 / Fold change vs veh, TAF9 / RFU, SLC1A5 / Fold change vs veh, SLC1A5 / RFU, SLMO2 / Fold change vs veh, SLMO2 / RFU, ABCC4 / Fold change vs veh, ABCC4 / RFU, LOC101060439 /// RAP1B / Fold change vs veh, LOC101060439 /// RAP1B / RFU, RFX7 / Fold change vs veh, RFX7 / RFU, GTPBP10 / Fold change vs veh, GTPBP10 / RFU, CNEP1R1 / Fold change vs veh, CNEP1R1 / RFU, BIVM-ERCC5 /// ERCC5 / Fold change vs veh, BIVM-ERCC5 /// ERCC5 / RFU, ILF3 / Fold change vs veh, ILF3 / RFU 11762660_at / Fold change /veh 11762660_at / RFU VCAN (11757783_s_at) / Fold change /veh VCAN (11757783_s_at) / RFU DDX43 (11728927_at) / Fold change /veh DDX43 (11728927_at) / RFU KRT8 (11758188_x_at) / Fold change /veh KRT8 (11758188_x_at) / RFU NKD1 (11759106_at) / Fold change /veh NKD1 (11759106_at) / RFU SRD5A1 (11742802_a_at) / Fold change /veh SRD5A1 (11742802_a_at) / RFU TPSAB1 /// TPSB2 (11721975_s_at) / Fold change /veh TPSAB1 /// TPSB2 (11721975_s_at) / RFU GSTM3 (11746129_a_at) / Fold change /veh GSTM3 (11746129_a_at) / RFU IL23R (11737362_x_at) / Fold change /veh IL23R (11737362_x_at) / RFU TMEM51 (11727254_a_at) / Fold change /veh TMEM51 (11727254_a_at) / RFU PIWIL2 (11732686_x_at) / Fold change /veh PIWIL2 (11732686_x_at) / RFU ORM1 (11744905_x_at) / Fold change /veh ORM1 (11744905_x_at) / RFU CCDC152 (11743942_at) / Fold change /veh CCDC152 (11743942_at) / RFU ECM1 (11717891_a_at) / Fold change /veh ECM1 (11717891_a_at) / RFU IL23R (11748794_a_at) / Fold change /veh IL23R (11748794_a_at) / RFU TNFAIP8L3 (11732012_x_at) / Fold change /veh TNFAIP8L3 (11732012_x_at) / RFU MBOAT4 (11741988_at) / Fold change /veh MBOAT4 (11741988_at) / RFU 11764193_at / Fold change /veh 11764193_at / RFU TMEM53 (11763286_at) / Fold change /veh TMEM53 (11763286_at) / RFU MAGEB2 (11727129_at) / Fold change /veh MAGEB2 (11727129_at) / RFU TMEM200A (11744735_a_at) / Fold change /veh TMEM200A (11744735_a_at) / RFU CCDC152 (11751479_a_at) / Fold change /veh CCDC152 (11751479_a_at) / RFU FAM211A (11726209_a_at) / Fold change /veh FAM211A (11726209_a_at) / RFU RGS16 (11746705_a_at) / Fold change /veh RGS16 (11746705_a_at) / RFU VCAN (11755009_s_at) / Fold change /veh VCAN (11755009_s_at) / RFU RHOB (11743442_s_at) / Fold change /veh RHOB (11743442_s_at) / RFU RGS16 (11720943_a_at) / Fold change /veh RGS16 (11720943_a_at) / RFU RGS16 (11720944_at) / Fold change /veh RGS16 (11720944_at) / RFU, VPS4B / Fold change vs veh, VPS4B / RFU, CREB1 / Fold change vs veh, CREB1 / RFU, DNAJC13 / Fold change vs veh, DNAJC13 / RFU, GNAQ / Fold change vs veh, GNAQ / RFU, CDK5R1 / Fold change vs veh, CDK5R1 / RFU, ZRANB3 / Fold change vs veh, ZRANB3 / RFU, CUL4A / Fold change vs veh, CUL4A / RFU, CCNY / Fold change vs veh, CCNY / RFU, UFL1 / Fold change vs veh, UFL1 / RFU, COG3 / Fold change vs veh, COG3 / RFU, DIAPH2 / Fold change vs veh, DIAPH2 / RFU, SKA2 / Fold change vs veh, SKA2 / RFU, AFF3 / Fold change vs veh, AFF3 / RFU, LMF1 / Fold change vs veh, LMF1 / RFU, IPO11 / Fold change vs veh, IPO11 / RFU, DFFB / Fold change vs veh, DFFB / RFU, FOXP1 / Fold change vs veh, FOXP1 / RFU, CARD8 / Fold change vs veh, CARD8 / RFU, STRN3 / Fold change vs veh, STRN3 / RFU, ADK / Fold change vs veh, ADK / RFU, RASSF2 / Fold change vs veh, RASSF2 / RFU, WIPF1 / Fold change vs veh, WIPF1 / RFU, LARP1B / Fold change vs veh, LARP1B / RFU, RASA1 / Fold change vs veh, RASA1 / RFU, RB1 / Fold change vs veh, RB1 / RFU, PPFIA1 / Fold change vs veh, PPFIA1 / RFU, MAT2A / Fold change vs veh, MAT2A / RFU, CCT5 / Fold change vs veh, CCT5 / RFU, WDR92 / Fold change vs veh, WDR92 / RFU, CUX1 / Fold change vs veh, CUX1 / RFU, TTC7A / Fold change vs veh, TTC7A / RFU, TMEM135 / Fold change vs veh, TMEM135 / RFU, DEPTOR / Fold change vs veh, DEPTOR / RFU, CPM / Fold change vs veh, CPM / RFU, DNAJB6 / Fold change vs veh, DNAJB6 / RFU, CACNA2D3 / Fold change vs veh, CACNA2D3 / RFU, DTX4 / Fold change vs veh, DTX4 / RFU, TFCP2 / Fold change vs veh, TFCP2 / RFU, GMCL1 /// GMCL1P1 / Fold change vs veh, GMCL1 /// GMCL1P1 / RFU, AEBP2 / Fold change vs veh, AEBP2 / RFU, SNHG1 /// SNORD22 /// SNORD25 /// SNORD26 /// SNORD27 /// SNORD28 /// SNORD29 /// SNORD31 / Fold change vs veh, SNHG1 /// SNORD22 /// SNORD25 /// SNORD26 /// SNORD27 /// SNORD28 /// SNORD29 /// SNORD31 / Fold change (Aza/veh), C12orf56 (ProbeSet 11735607_a_at) / Fold change (ACY-1035/veh), C12orf56 (ProbeSet 11735607_a_at) / Fold change (Aza/veh), FGFR1OP (ProbeSet 11751329_s_at) / Fold change (ACY-1035/veh), FGFR1OP (ProbeSet 11751329_s_at) / Fold change (Aza/veh), VPS36 (ProbeSet 11739960_a_at) / Fold change (ACY-1035/veh), VPS36 (ProbeSet 11739960_a_at) / RFU SYPL1 (11715823_x_at) / Fold change /veh SYPL1 (11715823_x_at) / RFU IGFBP7 (11715501_s_at) / Fold change /veh IGFBP7 (11715501_s_at) / RFU REEP3 (11722064_at) / Fold change /veh REEP3 (11722064_at) / RFU IGLL1 (11728026_x_at) / Fold change /veh IGLL1 (11728026_x_at): dose or concentration left out as unconfirmed
Settings: MV-4-11 cells, 48 hours

SMILES: Nc1ccc(-c2cccs2)cc1NC(=O)c1ccc2c(c1)cc(C1CC1)n2CCN1CCOCC1 [ACY-1035]
- RFU TMCC2 (11721928_a_at): 13.59 RFU
